Measured values from ChEMBL document CHEMBL1201862, “PubChem BioAssay data set” (2004).
Counter-ions that a name gives are not always drawn. Active and inactive are the calls of the source.

Experiments:
[1] = NIH-3T3 fibroblast cytotoxicity, dose response, cytotoxicity control, cell-based, fluorescence, Alamar Blue, secondary assay (AID 2327); format: functional;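 further: NIH-3T3 mouse fibroblasts cultured with fluconazole at 8 µg/mL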
[2] = fluconazole-exposed Candida albicans growth modulators – fluorescence, retest, confirmation (AID 2467); format: functional, cell-based
[3] = target: Luciferin 4-monooxygenase (Photinus pyralis, UniProt P08659); assay: inhibition of purified Photinus pyralis luciferase – biochemical, luminescence, dose response (AID 1891)
Chain of Luciferin 4-monooxygenase (P08659 whole entry): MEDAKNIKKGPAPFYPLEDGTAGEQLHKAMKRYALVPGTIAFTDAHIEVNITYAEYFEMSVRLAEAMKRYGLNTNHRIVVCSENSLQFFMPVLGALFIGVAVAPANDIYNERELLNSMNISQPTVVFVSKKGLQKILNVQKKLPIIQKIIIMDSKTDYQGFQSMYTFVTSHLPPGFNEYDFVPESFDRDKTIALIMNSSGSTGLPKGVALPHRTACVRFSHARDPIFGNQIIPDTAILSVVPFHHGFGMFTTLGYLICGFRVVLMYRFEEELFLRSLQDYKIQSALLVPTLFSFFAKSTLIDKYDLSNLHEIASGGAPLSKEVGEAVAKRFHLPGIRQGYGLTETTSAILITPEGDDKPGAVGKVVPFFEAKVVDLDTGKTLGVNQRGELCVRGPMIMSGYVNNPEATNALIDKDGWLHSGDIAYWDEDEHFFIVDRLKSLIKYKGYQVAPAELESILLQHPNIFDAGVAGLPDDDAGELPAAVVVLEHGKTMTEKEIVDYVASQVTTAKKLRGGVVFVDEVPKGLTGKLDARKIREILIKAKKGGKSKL

[4] = Luminescence Cell-Based Dose Confirmation HTS to Identify Inhibitors of Platelet Dense Granule Release. [Related pubchem assays: 1663 (Primary HTS), 1678 (Summary of Project)]; format: functional
[5] = target: T1, Heat shock factor protein 1 (Mus musculus, UniProt P38532); assay: enhancement of HSF1-driven luciferase signal – cell-based, NIH3T3, luminescence, dose retest, confirmation (AID 435004); format: functional;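 further: stress induced by proteasome inhibitor MG132 added 30 min after compound; luciferase reporter driven by HSF1 response element in NIH3T3 cells; actives raise luminescence as potentiators of the MG132 stress response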
T1 sequence (P38532 whole entry): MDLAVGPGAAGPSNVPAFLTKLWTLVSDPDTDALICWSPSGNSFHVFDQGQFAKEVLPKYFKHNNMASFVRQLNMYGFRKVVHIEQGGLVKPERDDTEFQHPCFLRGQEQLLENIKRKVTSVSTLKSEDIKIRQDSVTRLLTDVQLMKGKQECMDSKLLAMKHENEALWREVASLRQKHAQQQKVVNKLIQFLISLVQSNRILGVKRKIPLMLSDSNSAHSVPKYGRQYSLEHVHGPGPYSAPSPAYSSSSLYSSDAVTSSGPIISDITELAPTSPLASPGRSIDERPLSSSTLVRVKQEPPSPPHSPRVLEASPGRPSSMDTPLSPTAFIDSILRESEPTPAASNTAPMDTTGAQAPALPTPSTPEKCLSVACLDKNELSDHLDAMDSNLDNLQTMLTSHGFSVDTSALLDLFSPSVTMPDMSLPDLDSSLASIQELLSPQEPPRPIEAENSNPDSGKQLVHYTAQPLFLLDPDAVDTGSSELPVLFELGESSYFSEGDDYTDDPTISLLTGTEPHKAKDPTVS

[6] = tested on: Streptococcus sp. 'group A'; assay: Streptococcus pyogenes SK(-)GAS viability under kanamycin – luminescence, BacTiterGlo, confirmation, counter-screen for streptokinase expression inhibitor project, dose response (AID 1900); format: functional, organism-based
Streptokinase A = target: T2, Streptokinase A (Streptococcus pyogenes serotype M1, UniProt P10520); assay: viability-normalized secreted streptokinase activity reduction – plasminogen activation absorbance, OD405, dose response (AID 1914); format: functional, Streptococcus pyogenes M1 GAS;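 further: secreted streptokinase activity via plasminogen activation per viability signal from cell pellet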
T2 sequence (P10520 whole entry): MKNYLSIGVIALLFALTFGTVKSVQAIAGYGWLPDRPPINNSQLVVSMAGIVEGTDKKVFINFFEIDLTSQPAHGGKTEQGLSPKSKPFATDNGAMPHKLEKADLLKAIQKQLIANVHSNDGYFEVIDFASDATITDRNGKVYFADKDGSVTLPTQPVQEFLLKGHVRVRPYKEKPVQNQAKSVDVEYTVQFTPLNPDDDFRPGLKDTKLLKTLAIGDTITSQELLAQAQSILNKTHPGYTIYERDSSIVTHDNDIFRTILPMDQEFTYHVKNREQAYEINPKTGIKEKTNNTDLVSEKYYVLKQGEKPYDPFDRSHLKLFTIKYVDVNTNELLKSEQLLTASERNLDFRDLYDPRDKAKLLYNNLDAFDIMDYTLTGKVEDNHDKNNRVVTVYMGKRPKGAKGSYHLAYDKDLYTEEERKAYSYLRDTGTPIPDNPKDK

Streptococcus = assay: GAS UMAA2166 growth inhibition – luminescence, BacTiterGlo, counter-screen for streptokinase expression inhibitor project, dose response (AID 1915); format: functional, organism-based;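 further: potency for reduction of bacterial viability or growth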
[7] = target: T3, Corticotropin-releasing factor receptor 2/Corticotropin-releasing factor-binding protein (Homo sapiens, UniProt P24387+Q13324); assay: activators of CRF receptor 2 with binding protein – uHTS hits, confirmation (AID 602473); format: functional; settings: read-out: EC50_Mean
T3 sequence (Q13324 whole entry): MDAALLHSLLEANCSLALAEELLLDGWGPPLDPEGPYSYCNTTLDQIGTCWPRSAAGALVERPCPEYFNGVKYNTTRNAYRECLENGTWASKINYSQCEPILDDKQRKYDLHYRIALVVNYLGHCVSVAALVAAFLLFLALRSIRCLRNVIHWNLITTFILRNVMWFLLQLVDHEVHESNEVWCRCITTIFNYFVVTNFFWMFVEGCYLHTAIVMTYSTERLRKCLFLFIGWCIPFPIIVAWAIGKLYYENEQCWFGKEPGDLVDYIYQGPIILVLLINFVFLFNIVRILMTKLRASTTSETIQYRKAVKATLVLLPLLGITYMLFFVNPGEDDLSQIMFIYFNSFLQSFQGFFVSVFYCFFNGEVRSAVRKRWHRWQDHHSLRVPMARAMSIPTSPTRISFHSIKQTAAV
T3 sequence (P24387 whole entry): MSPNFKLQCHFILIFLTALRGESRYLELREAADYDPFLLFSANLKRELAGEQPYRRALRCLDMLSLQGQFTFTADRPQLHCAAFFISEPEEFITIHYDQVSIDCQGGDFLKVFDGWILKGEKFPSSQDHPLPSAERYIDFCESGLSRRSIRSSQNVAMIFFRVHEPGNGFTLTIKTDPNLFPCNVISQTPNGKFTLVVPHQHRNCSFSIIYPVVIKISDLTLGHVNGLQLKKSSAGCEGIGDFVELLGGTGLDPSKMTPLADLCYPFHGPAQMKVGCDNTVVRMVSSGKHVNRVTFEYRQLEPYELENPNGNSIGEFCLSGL

Cytochrome P450 2C19 = Cytochrome P450 2C19 (Homo sapiens, UniProt P33261); assay: Cytochrome panel assay with activity outcomes. Panel member name: p450-cyp2c19 Compounds with AC50 equal or less than 10 uM are considered active; format: functional
Chain of Cytochrome P450 2C19 (P33261 whole entry): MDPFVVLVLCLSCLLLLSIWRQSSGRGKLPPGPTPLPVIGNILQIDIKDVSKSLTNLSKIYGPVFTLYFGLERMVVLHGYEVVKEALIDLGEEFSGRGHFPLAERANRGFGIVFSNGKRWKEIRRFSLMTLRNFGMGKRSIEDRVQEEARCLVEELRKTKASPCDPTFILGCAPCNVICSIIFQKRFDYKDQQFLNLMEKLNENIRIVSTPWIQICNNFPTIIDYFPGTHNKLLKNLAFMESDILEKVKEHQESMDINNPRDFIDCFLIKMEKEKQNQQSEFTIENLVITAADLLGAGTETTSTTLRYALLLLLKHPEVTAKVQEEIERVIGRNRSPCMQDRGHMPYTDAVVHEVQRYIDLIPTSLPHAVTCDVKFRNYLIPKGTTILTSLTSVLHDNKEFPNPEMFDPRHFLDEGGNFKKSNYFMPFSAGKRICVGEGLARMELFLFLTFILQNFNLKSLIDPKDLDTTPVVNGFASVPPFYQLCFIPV

Cytochrome P450 2D6 = Cytochrome P450 2D6 (Homo sapiens, UniProt P10635);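 further: CYP2D6 member of a cytochrome P450 panel assay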
Chain of Cytochrome P450 2D6 (P10635 whole entry): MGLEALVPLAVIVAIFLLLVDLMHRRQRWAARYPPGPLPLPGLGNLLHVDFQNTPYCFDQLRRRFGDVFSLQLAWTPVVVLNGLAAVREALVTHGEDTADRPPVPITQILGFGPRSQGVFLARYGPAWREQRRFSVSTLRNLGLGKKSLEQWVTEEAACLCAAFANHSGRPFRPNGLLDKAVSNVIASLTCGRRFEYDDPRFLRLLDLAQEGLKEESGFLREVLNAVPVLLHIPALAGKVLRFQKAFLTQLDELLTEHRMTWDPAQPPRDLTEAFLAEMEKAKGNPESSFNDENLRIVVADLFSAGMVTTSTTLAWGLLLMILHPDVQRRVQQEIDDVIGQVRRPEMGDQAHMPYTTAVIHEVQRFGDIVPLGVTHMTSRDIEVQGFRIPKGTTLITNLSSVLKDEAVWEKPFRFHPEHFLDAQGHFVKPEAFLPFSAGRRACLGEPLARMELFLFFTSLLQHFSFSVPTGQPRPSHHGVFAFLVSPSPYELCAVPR

Cytochrome P450 3A4 = Cytochrome P450 3A4 (Homo sapiens, UniProt P08684);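 further: CYP3A4 tested as one member of a cytochrome P450 panel screen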
Chain of Cytochrome P450 3A4 (P08684 whole entry): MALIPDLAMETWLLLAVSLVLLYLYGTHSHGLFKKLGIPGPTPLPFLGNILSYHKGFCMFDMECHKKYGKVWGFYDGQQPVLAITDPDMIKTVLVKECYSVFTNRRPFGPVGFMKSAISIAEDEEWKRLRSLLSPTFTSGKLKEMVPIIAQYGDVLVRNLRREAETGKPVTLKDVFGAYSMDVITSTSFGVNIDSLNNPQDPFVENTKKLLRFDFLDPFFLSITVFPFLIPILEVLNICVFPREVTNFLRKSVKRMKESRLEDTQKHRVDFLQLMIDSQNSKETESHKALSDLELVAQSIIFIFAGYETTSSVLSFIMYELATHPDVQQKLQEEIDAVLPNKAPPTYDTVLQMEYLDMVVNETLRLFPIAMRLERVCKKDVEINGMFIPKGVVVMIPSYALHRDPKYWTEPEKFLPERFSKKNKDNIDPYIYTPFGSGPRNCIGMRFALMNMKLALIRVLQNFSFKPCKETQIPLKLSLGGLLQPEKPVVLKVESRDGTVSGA

[8] = Luminescence Cell-Based Dose Retest to Confirm Inhibitors of Cancer Stem Cells. [Related pubchem assays (depositor defined):AID2717, AID2721]; format: functional; settings: Homo sapiens
Cytochrome P450 1A2 = target: T4, Cytochrome P450 1A2 (Homo sapiens, UniProt P05177);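 further: PubChem cytochrome P450 panel assay, CYP1A2 panel member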
T4 sequence (P05177 whole entry): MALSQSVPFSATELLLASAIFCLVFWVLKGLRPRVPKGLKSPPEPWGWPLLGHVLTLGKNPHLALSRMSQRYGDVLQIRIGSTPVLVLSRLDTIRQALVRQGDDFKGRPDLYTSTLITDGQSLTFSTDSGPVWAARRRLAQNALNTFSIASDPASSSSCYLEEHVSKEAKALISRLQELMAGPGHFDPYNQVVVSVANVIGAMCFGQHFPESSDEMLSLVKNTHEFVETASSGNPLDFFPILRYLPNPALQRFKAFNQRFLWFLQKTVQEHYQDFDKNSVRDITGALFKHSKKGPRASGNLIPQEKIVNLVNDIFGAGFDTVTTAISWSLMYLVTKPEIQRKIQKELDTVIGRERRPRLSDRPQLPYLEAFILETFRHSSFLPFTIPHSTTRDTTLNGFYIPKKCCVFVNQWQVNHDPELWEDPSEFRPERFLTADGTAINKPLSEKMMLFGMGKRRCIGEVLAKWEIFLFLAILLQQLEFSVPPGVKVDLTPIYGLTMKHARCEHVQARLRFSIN

[9] = reduction of Shn3 3'UTR-driven luciferase in osteoblasts – cell-based, Clone20 osteoblasts, firefly luciferase, cherry-picked, dose response (AID 624132); format: functional;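 further: firefly luciferase luminescence from reporter carrying the Shn3 3'UTR in osteoblasts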
[10] = non-specific 3'UTR reporter inhibition in Clone20-Shn3RL – cell-based, Renilla luciferase, cherry-picked, counter-screen for Shn3 inhibitor project, dose response (AID 624133); format: functional
[11] = P. falciparum Dd2 growth inhibitors, dose response, SYBR Green, cherry-picked samples (AID 1159567); format: functional, cell-based

O=C(NCc1ccc(Cl)cc1)c1n[nH]c([N+](=O)[O-])c1Cl
EC50 [1]: > 160 µM (inactive)
EC50 [2]: 0.123 µM (active)

COc1ccc(CC(=O)Nc2ccc(-c3cn4ccccc4n3)cc2)cc1OC
EC50 [3]: > 112 µM (not active)
EC50 [4]: > 112 µM (not active)

CC(C(=O)Nc1ccccc1Br)N1c2cccc3cccc(c23)S1(=O)=O (centres undefined)
EC50 [5]: > 260 µM (inactive)

O=C(CSc1nnc(SCc2ccc(F)cc2)s1)Nc1ccc(C(=O)O)cc1
EC50 [3]: > 112 µM (not active)
EC50 [4]: 39.4 µM (active)

CC(C)OC(=O)c1c(NS(=O)(=O)c2ccccc2)sc2c1CCCC2
EC50 [6]: 3.69 µM (active)
EC50 (Streptokinase A): > 150 µM (not active)
EC50 (Streptococcus): 7.93 µM (active)
EC50 [7]: 14 µM (active)

Cc1cccc(Oc2ccc(NC(=O)c3ccccc3C(=O)O)cc2)c1C
EC50 [7]: 8.97 µM (active)

CC(C)NC(=S)NC(=O)c1ccc(-c2ccccc2)cc1
EC50 [7]: > 53 µM (inactive)

CCc1noc(N)c1C(=O)Nc1ccc(F)c(Cl)c1
AC50 (Cytochrome P450 2C19; read-out: AC50): 15.8 µM (inconclusive)
AC50 (Cytochrome P450 2D6): 22.4 µM (inconclusive)
AC50 (Cytochrome P450 3A4): 15.8 µM (inconclusive)

N#Cc1ccc(CN2CC3(CCN(C(=O)c4cc(C(F)(F)F)cc(C(F)(F)F)c4)CC3)C2)cc1
AC50 (Cytochrome P450 2C19; read-out: AC50): 39.8 µM (inconclusive)
AC50 (Cytochrome P450 2D6): 31.6 µM (inconclusive)

Cc1cccc(NC(=O)CNC(=O)COC(=O)CCS(=O)(=O)c2ccccc2)c1C
EC50 [3]: > 112 µM (not active)
EC50 [4]: > 112 µM (not active)

COc1ccc2nc(NC(=O)CSc3nnc(C)s3)sc2c1
AC50 (Cytochrome P450 2C19; read-out: AC50): 3.55 µM (inconclusive)
AC50 (Cytochrome P450 3A4): 3.98 µM (inconclusive)

COc1ccc(-c2c[nH]nc2-c2ccc(OCc3ccc([N+](=O)[O-])cc3)cc2O)cc1OC
EC50 [5]: > 260 µM (inactive)

N=C(N)SCc1nc2ccccc2c(=O)n1-c1ccccc1Cl
AC50 [8]: 6.37 µM (active)
AC50 (Cytochrome P450 2C19; read-out: AC50): 10 µM (inconclusive)
AC50 (Cytochrome P450 2D6): 0.316 µM (inconclusive)

O=C(CCC(=O)N1CCN(c2ccc(O)cc2)CC1)c1ccc(Br)cc1
AC50 [8]: 6.98 µM (active)
EC50 [5]: > 260 µM (inactive)

O=C(OC1CCOC1=O)c1cc(Cl)ccc1[N+](=O)[O-] (centres undefined)
EC50 [5]: > 260 µM (inactive)

CC(=O)Nc1ccc(NC(=O)c2ccccc2CC[N+](=O)[O-])cc1
AC50 (Cytochrome P450 2C19; read-out: AC50): 0.355 µM (inconclusive)
AC50 (Cytochrome P450 2D6): 14.1 µM (inconclusive)

Cc1cc(C)c(C)c(OCC(O)CN2CCN(c3ccccn3)CC2)c1 (centres undefined)
EC50 [3]: > 112 µM (not active)
EC50 [4]: > 112 µM (not active)

CCOC(=O)c1ccccc1NC(=O)/C(C)=C/C(=O)O
AC50 (Cytochrome P450 2C19; read-out: AC50): 39.8 µM (inconclusive)
AC50 (Cytochrome P450 1A2): 20 µM (inconclusive)

O=C(CN1CCN(c2ccccc2)CC1)N1N=CCC1c1ccccc1 (centres undefined)
EC50 [3]: > 112 µM (not active)
EC50 [4]: > 112 µM (not active)

O=C(NCC1(N2CCCCC2)CCCCC1)c1ccc(NS(=O)(=O)c2ccc(F)cc2)cc1
EC50 [3]: > 112 µM (not active)
EC50 [4]: > 112 µM (not active)

Cc1cc(-n2ccc(=O)[nH]c2=O)nc(-c2ccccc2)n1
EC50 [3]: > 112 µM (not active)
EC50 [4]: 15.4 µM (active)

Cc1cc2c(ncn2C)c(NS(=O)(=O)c2cc(Cl)ccc2Cl)c1C
EC50 [5]: > 260 µM (inactive)

CC(=O)c1nn(-c2cccc(Br)c2)cc1C(=O)c1ccc(Cl)cc1
EC50 [5]: > 260 µM (inactive)

C=CCn1c(S)nnc1C1CCCCC1
EC50 [5]: > 260 µM (inactive)

COCCn1c(=O)c(-c2cn(C)c3ccccc23)nc2cnc(Oc3ccc(OC)cc3)nc21
AC50 (Cytochrome P450 2C19; read-out: AC50): 15.8 µM (inconclusive)
AC50 (Cytochrome P450 1A2): 2.51 µM (inconclusive)

COc1ccc(-c2nnc(-c3ccccc3)o2)cc1OC
EC50 [3]: > 112 µM (not active)
EC50 [4]: 72.5 µM (active)

CC(C)CN1CCCC2(CCN(S(=O)(=O)c3ccccc3)CC2)C1
AC50 (Cytochrome P450 2C19; read-out: AC50): 31.6 µM (inconclusive)

Cc1c(OCC(=O)N2CCN(c3ccccc3)CC2)ccc2c3c(c(=O)oc12)CCCC3
EC50 [3]: > 112 µM (not active)
EC50 [4]: > 112 µM (not active)

Cc1ccc(CNC(=O)c2cc(-c3ccccc3C)nn2CC2CC(c3cccnc3)=NO2)cc1 (centres undefined)
AC50 [9]: > 70 µM (inactive)
AC50 [10]: 29 µM (active)

COc1ccc(NC(=O)COc2ccc(CNCCCN3CCOCC3)cc2OC)cc1.Cl
AC50 (Cytochrome P450 2C19): inconclusive

COc1ccc(NC(=O)NC2CC3CCCC(C2)N3Cc2ccccc2)cc1 (centres undefined)
AC50 (Cytochrome P450 2C19; read-out: AC50): 14.1 µM (inconclusive)
AC50 (Cytochrome P450 2D6): 11.2 µM (inconclusive)

COc1cc(OC)cc(C(=O)N/N=C/c2ccc(OC)c(COc3ccc(F)cc3)c2)c1
EC50 [7]: > 53 µM (inactive)

CN(C)c1ccc(/C=N/NC(=O)c2ccnn2C)cc1
EC50 [3]: 6.24 µM (active)
EC50 [4]: 1.32 µM (active)

O=C(c1ccc(F)cc1)N1CC(=O)N2[C@H](CO)[C@H](c3ccc(C#Cc4ccc(F)cc4)cc3)[C@H]2C1
AC50 [11]: 4.05 µM (active)

N#C[C@@H]1[C@H](c2ccc(C#CC3CCCCC3)cc2)[C@H](CO)N1C(=O)Nc1ccc(F)cc1
AC50 [11]: 5.43 µM (active)

CCS(=O)(=O)N1CC2(CN(Cc3ccccc3F)[C@@H](CO)c3[nH]c4cc(OC)ccc4c32)C1
AC50 [11]: 9.94 µM (active)

COc1cccc(NC(=O)N(C)C[C@H]2Oc3ncc(/C=C/c4ccccc4)cc3C(=O)N([C@@H](C)CO)C[C@@H]2C)c1
AC50 [11]: 6.14 µM (active)

CN1CCN([C@@H](c2ccccc2)c2ccc(Cl)cc2)CC1 [CHLORCYCLIZINE HYDROCHLORIDE]
AC50 (Cytochrome P450 2C19; read-out: AC50): 3.98 µM (inconclusive)
